Data reported in ChEMBL document CHEMBL6127136, “Discovery of 1-(Phenylsulfonyl)-1,2,3,4-tetrahydroquinoline Derivative as Orally Bioavailable and Safe RORγt Inverse Agonists for Potential Treatment of Rheumatoid Arthritis” (J Med Chem, 2024).
The source made the active and inactive calls. The rule behind the calls is not given here.

Experiments:
[1] = target: T1, Nuclear receptor ROR-gamma (Homo sapiens, UniProt P51449); test: Inverse agonist activity at N-terminal 6-His-tagged/APC-labeled human RORgammat LBD extracted from Escherichia coli assessed as inhibition of europium-labeled SRC-1 recruitment incubated for 3 hrs by TR-FRET analysis
T1 sequence (P51449 whole entry): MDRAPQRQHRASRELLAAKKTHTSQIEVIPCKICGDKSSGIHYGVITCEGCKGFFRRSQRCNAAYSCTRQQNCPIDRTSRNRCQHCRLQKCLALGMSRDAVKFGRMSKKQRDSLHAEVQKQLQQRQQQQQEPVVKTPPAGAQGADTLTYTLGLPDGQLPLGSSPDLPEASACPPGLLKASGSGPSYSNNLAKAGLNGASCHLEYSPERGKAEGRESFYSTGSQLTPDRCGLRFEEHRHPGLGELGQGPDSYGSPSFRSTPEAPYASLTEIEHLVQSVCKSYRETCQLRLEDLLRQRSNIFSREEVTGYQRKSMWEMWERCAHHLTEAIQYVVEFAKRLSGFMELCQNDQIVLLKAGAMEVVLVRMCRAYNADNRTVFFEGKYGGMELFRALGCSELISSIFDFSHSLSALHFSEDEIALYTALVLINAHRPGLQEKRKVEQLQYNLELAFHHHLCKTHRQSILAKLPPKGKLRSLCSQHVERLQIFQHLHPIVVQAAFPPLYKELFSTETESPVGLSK

[2] = target: T1, Nuclear receptor ROR-gamma; test: Inverse agonist activity at GAL4 DNA-binding domain fused RORgamma (unknown origin) transfected in HEK293T cells co-transfected with GAL4-promoter driven luciferase reporter gene assessed as inhibition of RORgammat transcription incubated for 18 to 20 hrs by plate reader analysis; format: cell-based
HUVEC = test: Antiproliferative activity against HUVEC cells assessed as inhibition of colony formation at 2 to 8 uM incubated for 7 days by crystal violet staining based light microscopic analysis; format: toxicity, cell-based; settings: human, 168 h, dose 2-8 µM, time 7 day
HeLa = test: Antiproliferative activity against human HeLa cells assessed as inhibition of colony formation at 2 to 8 uM incubated for 7 days by crystal violet staining based light microscopic analysis; format: toxicity, cell-based; settings: 168 h, dose 2-8 µM, time 7 day
Mus musculus [3] = test: Antiarthritic activity in chicken type II collagen-induced arthritis DBA/1 mouse model assessed as reduction in clinical score at 20 mg/kg/day, po measured after 42 days; format: functional, organism-based; settings: time 42.0 day
Mus musculus [4] = test: Antiarthritic activity in chicken type II collagen-induced arthritis DBA/1 mouse model assessed as reduction in hind paw thickness at 20 mg/kg/day, po administered for 2 weeks by H and E staining based analysis; format: functional, organism-based
[5] = Toxicity in chicken type II collagen-induced arthritis DBA/1 mouse model assessed as behavioral abnormalities at 20 mg/kg/day, po measured after 42 days; format: organism-based; settings: in vivo, 1008 h, time 42 day
Mus musculus [6] = test: Antiarthritic activity in chicken type II collagen-induced arthritis DBA/1 mouse model assessed as reduction in fore paw erythema at 20 mg/kg/day, po administered for 2 weeks by H and E staining based analysis; format: functional, organism-based
[7] = Toxicity in chicken type II collagen-induced arthritis DBA/1 mouse model assessed as signs of lymphoma at 20 mg/kg/day, po administered for 2 weeks by H and E staining based analysis; format: organism-based; settings: in vivo, 336 h
[8] = Toxicity in chicken type II collagen-induced arthritis DBA/1 mouse model assessed as increase in thymic cortex to medulla ratio at 20 mg/kg/day, po administered for 2 weeks by H and E staining based analysis; format: organism-based; settings: in vivo, 336 h
[9] = Toxicity in chicken type II collagen-induced arthritis DBA/1 mouse model assessed as morphological changes in thymocytes at 20 mg/kg/day, po administered for 2 weeks by H and E staining based analysis; format: organism-based; settings: in vivo, 336 h
Mus musculus [10] = test: Antiarthritic activity in chicken type II collagen-induced arthritis DBA/1 mouse model assessed as reduction in hind paw swelling at 20 mg/kg/day, po administered for 2 weeks by H and E staining based analysis; format: functional, organism-based
[11] = Toxicity in chicken type II collagen-induced arthritis DBA/1 mouse model assessed as body weight loss at 20 mg/kg/day, po measured after 42 days; format: organism-based; settings: in vivo, 1008 h, time 42 day
Mus musculus [12] = test: Antiarthritic activity in chicken type II collagen-induced arthritis DBA/1 mouse model assessed as reduction in fore paw swelling at 20 mg/kg/day, po administered for 2 weeks by H and E staining based analysis; format: functional, organism-based
Mus musculus [13] = test: Antiarthritic activity in chicken type II collagen-induced arthritis DBA/1 mouse model assessed as improvement in arthritic symptoms at 20 mg/kg/day, po administered for 2 weeks by H and E staining based analysis; format: functional, organism-based
Mus musculus [14] = test: Antiarthritic activity in chicken type II collagen-induced arthritis DBA/1 mouse model assessed as reduction in hind paw erythema at 20 mg/kg/day, po administered for 2 weeks by H and E staining based analysis; format: functional, organism-based
[15] = Toxicity in chicken type II collagen-induced arthritis DBA/1 mouse model assessed as signs of thymic enlargement at 20 mg/kg/day, po administered for 2 weeks by H and E staining based analysis; format: organism-based; settings: in vivo, 336 h
Mus musculus [16] = test: Antiarthritic activity in chicken type II collagen-induced arthritis DBA/1 mouse model assessed as reduction in fore paw thickness at 20 mg/kg/day, po administered for 2 weeks by H and E staining based analysis; format: functional, organism-based

IC50 [1] [nM] | Structure (SMILES) | other results
300 | CCc1ccc2c(c1)CCC(CC)N2S(=O)(=O)c1ccc(OCc2ccncn2)c(CO)c1 (racemic) | 
36 | CCc1ccc2c(c1)CC(C)CN2S(=O)(=O)c1ccc(OCC2CCOCC2)c(CO)c1 (racemic) | 
3120 | CCc1ccc2c(c1)CCC(CC)N2S(=O)(=O)c1ccc(C(CO)N2CCOCC2)c(CO)c1 (racemic) | 
11 | CCc1ccc2c(c1)CCC(CC)N2S(=O)(=O)c1ccc(OCC2CCOCC2)c(CO)c1 (racemic) | Activity (HUVEC): Non-Toxic; Activity (HeLa): Non-Toxic
21 | CCC1CCc2cc(C(F)(F)F)ccc2N1S(=O)(=O)c1ccc(OCC2CCOCC2)c(CO)c1 (racemic) | 
170 | CCc1ccc2c(c1)CCC(CC)N2S(=O)(=O)c1ccc(OC2CCN(S(C)(=O)=O)CC2)c(CO)c1 (racemic) | 
1430 | CCc1ccc2c(c1)CCC(CC)N2S(=O)(=O)c1ccc(OCCS(C)(=O)=O)c(CO)c1 (racemic) | 
23 | CCc1ccc2c(c1)CCC(C(F)(F)F)N2S(=O)(=O)c1ccc(OCC2CCOCC2)c(CO)c1 (racemic) | 
23 | CCC1CCc2cc(CC(F)(F)F)ccc2N1S(=O)(=O)c1ccc(OCC2CCOCC2)c(CO)c1 (racemic) | 
70 | CCC1CCc2cc(C(C)(C)C)ccc2N1S(=O)(=O)c1ccc(OCC2CCOCC2)c(CO)c1 (racemic) | 
21 | CCc1ccc2c(c1)CCC(CC(C)C)N2S(=O)(=O)c1ccc(OCC2CCOCC2)c(CO)c1 (racemic) | 
32 | CCc1ccc2c(c1)CC(CC)CN2S(=O)(=O)c1ccc(OCC2CCOCC2)c(CO)c1 (racemic) | 

More lines, now with the values behind:

Structure (SMILES) | IC50 [1] [nM] | other results
CCc1ccc2c(c1)CCC(C)(C)N2S(=O)(=O)c1ccc(OCC2CCOCC2)c(CO)c1 | 310 | 
CC[C@H]1CCc2cc(C(C)C)ccc2N1S(=O)(=O)c1ccc(OCC2CCOCC2)c(CO)c1 | 8.4 | IC50 [2]: 22.1 nM
CCc1ccc2c(c1)CCCN2S(=O)(=O)c1ccc(OCC2CCOCC2)c(CO)c1 | 858 | 
CCc1ccc2c(c1)CCC(CC)N2S(=O)(=O)c1ccc(OCC2CCOCC2)c(CO)n1 (racemic) | 212 | 
CCc1ccc2c(c1)CCC(CC)N2S(=O)(=O)c1ccc(OCCC(C)(C)O)c(CO)c1 (racemic) | 459 | 
CC1CCc2cc(C#N)ccc2N1S(=O)(=O)c1ccc(OCC2CCOCC2)c(CO)c1 (racemic) | 689 | 
CCc1ccc2c(c1)CCC(CC)N2S(=O)(=O)c1ccc(OCC2CCOCC2)c(S(C)(=O)=O)c1 (racemic) | 1860 | 
CCc1ccc2c(c1)CCC(CC)N2S(=O)(=O)c1ccc(OC2CN(C(C)=O)C2)c(CO)c1 (racemic) | 1760 | 
CCc1ccc2c(c1)CCC(C)N2S(=O)(=O)c1ccc(OCC2CCOCC2)c(CO)c1 (racemic) | 24 | 
CCc1ccc2c(c1F)CCC(CC)N2S(=O)(=O)c1ccc(OCC2CCOCC2)c(CO)c1 (racemic) | 14 | 
CCc1ccc2c(c1)C(C)CCN2S(=O)(=O)c1ccc(OCC2CCOCC2)c(CO)c1 (racemic) | 655 | 
CCC1CCc2cc(CC(C)(F)F)ccc2N1S(=O)(=O)c1ccc(OCC2CCOCC2)c(CO)c1 (racemic) | 16 | 
CCc1ccc2c(c1)CCC(CC)N2S(=O)(=O)c1ccc(C(O)CC2CCOCC2)c(CO)c1 (racemic) | 201 | 
CCC1CCc2cc(C(C)(C)O)ccc2N1S(=O)(=O)c1ccc(OCC2CCOCC2)c(CO)c1 (racemic) | 1400 | 
CC1CCc2cc(C3CC3)ccc2N1S(=O)(=O)c1ccc(OCC2CCOCC2)c(CO)c1 (racemic) | 21 | 
CCc1ccc2c(c1)CCC(CC)N2S(=O)(=O)c1ccc(OCC2CCS(=O)(=O)CC2)c(CO)c1 (racemic) | 146 | 
C=C(C)c1ccc2c(c1)CCC(CC)N2S(=O)(=O)c1ccc(OCC2CCOCC2)c(CO)c1 (racemic) | 12 | 
CCc1ccc2c(c1)CCC(C(C)C)N2S(=O)(=O)c1ccc(OCC2CCOCC2)c(CO)c1 (racemic) | 2 | 
CCc1ccc2c(c1)CCC(CO)N2S(=O)(=O)c1ccc(OCC2CCOCC2)c(CO)c1 (racemic) | 3420 | 
CCc1ccc2c(c1)CCC(CC)N2S(=O)(=O)c1ccc(OCC2CCOCC2)c(S(N)(=O)=O)c1 (racemic) | 576 | 
CCc1cnc2c(c1)CCC(CC)N2S(=O)(=O)c1ccc(OCC2CCOCC2)c(CO)c1 (racemic) | 35 | 
C=Cc1ccc2c(c1)CCC(CC)N2S(=O)(=O)c1ccc(OCC2CCOCC2)c(CO)c1 (racemic) | 36 | 
O=C([O-])Cc1ccccc1Nc1c(Cl)cccc1Cl.[Na+] [DICLOFENAC SODIUM] |  | Activity (Mus musculus [3]): Active; Activity (Mus musculus [4]): Active; Activity [5]: Non-Toxic; Activity (Mus musculus [6]): Active; Activity [7]: Non-Toxic; Activity [8]: Toxic; Activity [9]: Non-Toxic; Activity (Mus musculus [10]): Active; Activity [11]: Non-Toxic; Activity (Mus musculus [12]): Active; Activity (Mus musculus [13]): Active; Activity (Mus musculus [14]): Active; Activity [15]: Non-Toxic; Activity (Mus musculus [16]): Active
